Measurements from US6613718B2, “Aryl ether derivatives and processes for their preparation and herbicidal and desiccant compositions containing them” (Ishihara Sangyo Kaisha, Ltd., priority 2001, dated 2003).

Legend:
Format in all cases: in vivo
[1] = test system: barnyardgrass (Echinochloa crus-galli, ECHCG); experiment: Pre-emerge greenhouse herbicide activity screening, phytotoxicity rating; details: 14 days after application
In short: (§1)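 Compounds in acetone track-sprayed at 15–1000 g ai/ha, 187 l/ha, onto sandy loam pots sown one day before (pre-emerge) or on 2-3 leaf plants (post-emerge, plus 0.25% v/v non-ionic surfactant). Phytotoxicity rated at 14 days, 0 (no damage) to 100 (all plants dead).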

[2] = test system: common ragweed (Ambrosia artemisiifolia L., AMBEL); experiment: as above; details: 14 days after application
In short: as §1

[3] = test system: green foxtail (Setaria viridis, SETVI); experiment: as above; details: 14 days after application
In short: as §1

[4] = test system: ivyleaf morningglory (Ipomoea hederacea, IPOHE); experiment: as above; details: 14 days after application
In short: as §1

[5] = test system: johnsongrass (Sorghum halepense, SORHA); experiment: as above; details: 14 days after application
In short: as §1

[6] = test system: lambsquarters (Chenopodium album, CHEAL); experiment: as above; details: 14 days after application
In short: as §1

[7] = test system: large crabgrass (Digitaria sanguinalis, DIGSA); experiment: as above; details: 14 days after application
In short: as §1

[8] = test system: redroot pigweed (Amaranthus retroflexus, AMARE); experiment: as above; details: 14 days after application
In short: as §1

[9] = test system: sicklepod (Cassia obtusifolia, CASOB); experiment: as above; details: 14 days after application
In short: as §1

[10] = test system: velvetleaf (Abutilon theophrasti, ABUTH); experiment: as above; details: 14 days after application
In short: as §1

[11] = test system: field corn (Zea mays L., var. Dekalb 535, CORN); experiment: Pre-emerge greenhouse screening, crop safety (phytotoxicity rating); details: 14 days after application
In short: as §1

[12] = test system: soybean (Glycine max L., var. Pella 86, SOY); experiment: as above; details: 14 days after application
In short: as §1

[13] = test system: upland rice (Oryza sp., var.Tebonnet, RICE); experiment: as above; details: 14 days after application
In short: as §1

[14] = test system: barnyardgrass (Echinochloa crus-galli, ECHCG); experiment: Post-emerge greenhouse herbicide activity screening, phytotoxicity rating; details: 14 days after application
In short: as §1

[15] = test system: common ragweed (Ambrosia artemisiifolia L., AMBEL); experiment: as above
In short: as §1

[16] = test system: green foxtail (Setaria viridis, SETVI); experiment: as above
In short: as §1

[17] = test system: ivyleaf morningglory (Ipomoea hederacea, IPOHE); experiment: as above; details: 14 days after application
In short: as §1

[18] = test system: johnsongrass (Sorghum halepense, SORHA); experiment: as above; details: 14 days after application
In short: as §1

[19] = test system: lambsquarters (Chenopodium album, CHEAL); experiment: as above
In short: as §1

[20] = test system: large crabgrass (Digitaria sanguinalis, DIGSA); experiment: as above; details: 14 days after application
In short: as §1

[21] = test system: redroot pigweed (Amaranthus retroflexus, AMARE); experiment: as above
In short: as §1

[22] = test system: sicklepod (Cassia obtusifolia, CASOB); experiment: as above
In short: as §1

[23] = test system: velvetleaf (Abutilon theophrasti, ABUTH); experiment: as above; details: 14 days after application
In short: as §1

[24] = test system: field corn (Zea mays L., var. Dekalb 535, CORN); experiment: Post-emerge greenhouse screening, crop safety / corn selectivity (phytotoxicity rating); details: for CORN crop damage, phytotoxicity rating (0-100 scale): 14 days after application
In short: as §1

[25] = test system: soybean (Glycine max L., var. Pella 86, SOY); experiment: Post-emerge greenhouse screening, crop safety (phytotoxicity rating); details: 14 days after application
In short: as §1

[26] = test system: upland rice (Oryza sp., var.Tebonnet, RICE); experiment: as above; details: 14 days after application
In short: as §1

[27] = 125 g ai/ha, 14 days after application
[28] = 250 g ai/ha, 14 days after application

Q: Which results are given for `Cn1c(=S)n(C)c(=O)n(-c2cc(Oc3ccccc3[N+](=O)[O-])c(Cl)cc2F)c1=O` [Compound 2-17]?
A: ECHCG phytotoxicity rating (0-100 scale) ([1]; 125 g ai/ha): 30; ECHCG phytotoxicity rating (0-100 scale) ([1]; 250 g ai/ha): 30; AMBEL phytotoxicity rating (0-100 scale) ([2]; 125 g ai/ha): 0; AMBEL phytotoxicity rating (0-100 scale) ([2]; 250 g ai/ha): 0; SETVI phytotoxicity rating (0-100 scale) ([3]; 125 g ai/ha): 85; SETVI phytotoxicity rating (0-100 scale) ([3]; 250 g ai/ha): 98; IPOHE phytotoxicity rating (0-100 scale) ([4]; 125 g ai/ha): 30; IPOHE phytotoxicity rating (0-100 scale) ([4]; 250 g ai/ha): 50; SORHA phytotoxicity rating (0-100 scale) ([5]; 125 g ai/ha): 25; SORHA phytotoxicity rating (0-100 scale) ([5]; 250 g ai/ha): 50; CHEAL phytotoxicity rating (0-100 scale) ([6]; 125 g ai/ha): 100; CHEAL phytotoxicity rating (0-100 scale) ([6]; 250 g ai/ha): 100; DIGSA phytotoxicity rating (0-100 scale) ([7]; 125 g ai/ha): 60; DIGSA phytotoxicity rating (0-100 scale) ([7]; 250 g ai/ha): 80; AMARE phytotoxicity rating (0-100 scale) ([8]; 125 g ai/ha): 99; AMARE phytotoxicity rating (0-100 scale) ([8]; 250 g ai/ha): 100; CASOB phytotoxicity rating (0-100 scale) ([9]; 125 g ai/ha): 0; CASOB phytotoxicity rating (0-100 scale) ([9]; 250 g ai/ha): 30; ABUTH phytotoxicity rating (0-100 scale) ([10]; 125 g ai/ha): 60; ABUTH phytotoxicity rating (0-100 scale) ([10]; 250 g ai/ha): 70; CORN crop damage, phytotoxicity rating (0-100 scale) ([11]; 125 g ai/ha): 0; CORN crop damage, phytotoxicity rating (0-100 scale) ([11]; 250 g ai/ha): 0; SOY crop damage, phytotoxicity rating (0-100 scale) ([12]; 125 g ai/ha): 0; SOY crop damage, phytotoxicity rating (0-100 scale) ([12]; 250 g ai/ha): 10; RICE crop damage, phytotoxicity rating (0-100 scale) ([13]; 125 g ai/ha): 0; RICE crop damage, phytotoxicity rating (0-100 scale) ([13]; 250 g ai/ha): 0; ECHCG phytotoxicity rating (0-100 scale) ([14]; 125 g ai/ha): 0; ECHCG phytotoxicity rating (0-100 scale) ([14]; 250 g ai/ha): 25; AMBEL phytotoxicity rating (0-100 scale) ([15]; 31.3 g ai/ha): 50; AMBEL phytotoxicity rating (0-100 scale) ([15]; 62.5 g ai/ha): 50; AMBEL phytotoxicity rating (0-100 scale) [15, 27]: 60; AMBEL phytotoxicity rating (0-100 scale) [15, 28]: 75; SETVI phytotoxicity rating (0-100 scale) ([16]; 31.3 g ai/ha): 0; SETVI phytotoxicity rating (0-100 scale) ([16]; 62.5 g ai/ha): 0; SETVI phytotoxicity rating (0-100 scale) [16, 27]: 0; SETVI phytotoxicity rating (0-100 scale) [16, 28]: 0; IPOHE phytotoxicity rating (0-100 scale) ([17]; 125 g ai/ha): 0; IPOHE phytotoxicity rating (0-100 scale) ([17]; 250 g ai/ha): 0; SORHA phytotoxicity rating (0-100 scale) ([18]; 125 g ai/ha): 0; SORHA phytotoxicity rating (0-100 scale) ([18]; 250 g ai/ha): 0; CHEAL phytotoxicity rating (0-100 scale) ([19]; 31.3 g ai/ha): 90; CHEAL phytotoxicity rating (0-100 scale) ([19]; 62.5 g ai/ha): 90; CHEAL phytotoxicity rating (0-100 scale) [19, 27]: 95; CHEAL phytotoxicity rating (0-100 scale) [19, 28]: 95; DIGSA phytotoxicity rating (0-100 scale) ([20]; 125 g ai/ha): 0; DIGSA phytotoxicity rating (0-100 scale) ([20]; 250 g ai/ha): 35; AMARE phytotoxicity rating (0-100 scale) ([21]; 31.3 g ai/ha): 80; AMARE phytotoxicity rating (0-100 scale) ([21]; 62.5 g ai/ha): 80; AMARE phytotoxicity rating (0-100 scale) [21, 27]: 80; AMARE phytotoxicity rating (0-100 scale) [21, 28]: 80; CASOB phytotoxicity rating (0-100 scale) ([22]; 31.3 g ai/ha): 0; CASOB phytotoxicity rating (0-100 scale) ([22]; 62.5 g ai/ha): 0; CASOB phytotoxicity rating (0-100 scale) [22, 27]: 25; CASOB phytotoxicity rating (0-100 scale) [22, 28]: 65; ABUTH phytotoxicity rating (0-100 scale) ([23]; 125 g ai/ha): 95; ABUTH phytotoxicity rating (0-100 scale) ([23]; 250 g ai/ha): 98; CORN selectivity, phytotoxicity rating (0-100 scale) ([24]; 62.5 g ai/ha): 3; CORN crop damage, phytotoxicity rating (0-100 scale) ([24]; 125 g ai/ha): 5; CORN crop damage, phytotoxicity rating (0-100 scale) ([24]; 250 g ai/ha): 8; SOY crop damage, phytotoxicity rating (0-100 scale) ([25]; 125 g ai/ha): 0; SOY crop damage, phytotoxicity rating (0-100 scale) ([25]; 250 g ai/ha): 25; RICE crop damage, phytotoxicity rating (0-100 scale) ([26]; 125 g ai/ha): 0; RICE crop damage, phytotoxicity rating (0-100 scale) ([26]; 250 g ai/ha): 0
